Test results taken from ChEMBL document CHEMBL1201862, “PubChem BioAssay data set” (2004).
Where a name gives a salt, the structure may show the parent alone. The source made the active and inactive calls.

What was measured:
[1] = target: T1, Probable nicotinate-nucleotide adenylyltransferase (Staphylococcus aureus (strain N315), UniProt P65502); format: functional, Staphylococcus aureus subsp. aureus N315;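 as to IC50 Mean: confirmatory dose-response retesting of NadD inhibitor hits first found in an ultra-high-throughput screen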
[2] = target: T1, Probable nicotinate-nucleotide adenylyltransferase; format: functional, Staphylococcus aureus subsp. aureus N315; conditions: read-out: IC50_Mean
[3] = target: DNA (cytosine-5)-methyltransferase 1 (Homo sapiens, UniProt P26358); experiment: inhibition of DNA methylation by DNMT1 – biochemical, fluorescent molecular beacon, confirmation (AID 602386); format: functional
[4] = target: Voltage-gated inwardly rectifying potassium channel KCNH2 (Homo sapiens, UniProt Q12809); conditions: Potency;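 also: confirmatory quantitative high-throughput screen measuring inhibition of hERG channel activity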
[5] = system: HeLa; experiment: ATP-based viability loss in HeLa cells – cell-based, CellTiter-Glo luminescence, cherry-pick samples, cytotoxicity control for MITF activator project, dose response (AID 540259); format: functional; conditions: Homo sapiens
[6] = target: Glucose-6-phosphate 1-dehydrogenase (Homo sapiens, UniProt P11413); experiment: inhibition of Homo sapiens G6PD, dose series – biochemical, fluorescence, selectivity assay for P. falciparum G6PD inhibitor project, dose response (AID 504792); format: functional
[7] = system: Vero; experiment: cells; format: functional, cell-based; conditions: Chlorocebus sabaeus
[8] = system: Vero; experiment: cells; format: functional; conditions: Chlorocebus sabaeus
[9] = target: Phospholipase A2 (Homo sapiens, UniProt P04054); format: functional;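 also: confirmatory dose-response counterscreen on phospholipase A2, testing hits that came from an ultra-high-throughput screen for ATG4B inhibitors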
[10] = Trypanosoma cruzi growth suppression in host cells – NIH3T3 host cells, beta-gal luminescence, confirmation (AID 2044); format: functional, cell-based;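 also: intracellular parasites grown in NIH/3T3 mouse fibroblasts as host cells; luminescent beta-galactosidase reporter signal from transgenic T. cruzi replicating inside host cells; inhibitors lower the luminescence signal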
[11] = target: T2, Cysteine protease ATG4B (Homo sapiens, UniProt Q9Y4P1); format: functional;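 also: Fluorescence-based dose-response confirmation assay measuring inhibition of ATG4B activity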
T2 sequence (Q9Y4P1 whole entry): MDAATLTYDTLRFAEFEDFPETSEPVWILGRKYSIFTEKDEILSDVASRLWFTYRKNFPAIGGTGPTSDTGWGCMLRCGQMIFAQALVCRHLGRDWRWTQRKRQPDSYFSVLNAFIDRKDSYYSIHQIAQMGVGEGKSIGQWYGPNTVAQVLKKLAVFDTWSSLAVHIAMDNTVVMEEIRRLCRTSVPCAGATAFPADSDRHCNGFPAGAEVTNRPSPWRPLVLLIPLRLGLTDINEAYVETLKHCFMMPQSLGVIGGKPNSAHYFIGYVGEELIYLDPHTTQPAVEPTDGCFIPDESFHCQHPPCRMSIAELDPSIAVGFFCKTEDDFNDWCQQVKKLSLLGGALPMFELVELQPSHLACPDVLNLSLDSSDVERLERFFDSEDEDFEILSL

[12] = NIH3T3 cell viability loss – ATP luminescence, mouse fibroblasts, counter-screen, dose response (AID 2010); format: functional, cell-based;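 also: cells exposed to compound for about 90 hours before reading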
[13] = target: Cytochrome P450 2D6 (Homo sapiens, UniProt P10635);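 also: CYP2D6 member of a cytochrome P450 panel assay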
[14] = target: Cytochrome P450 3A4 (Homo sapiens, UniProt P08684);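 also: CYP3A4 tested as one member of a cytochrome P450 panel screen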
[15] = blockers of bursicon-stimulated LGR2 cAMP reporter – cell-based, HEK293, CRE-luciferase reporter, cherry pick, set 2, dose response (AID 743343); format: functional;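 also: transfected cells were stimulated with diluted bursicon conditioned medium after compound addition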
[16] = target: T3, Heat shock factor protein 1 (Mus musculus, UniProt P38532); experiment: enhancement of HSF1-driven luciferase signal – cell-based, NIH3T3, luminescence, dose retest, confirmation (AID 435004); format: functional;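 also: stress induced by proteasome inhibitor MG132 added 30 min after compound; luciferase reporter driven by HSF1 response element in NIH3T3 cells; actives raise luminescence as potentiators of the MG132 stress response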
T3 sequence (P38532 whole entry): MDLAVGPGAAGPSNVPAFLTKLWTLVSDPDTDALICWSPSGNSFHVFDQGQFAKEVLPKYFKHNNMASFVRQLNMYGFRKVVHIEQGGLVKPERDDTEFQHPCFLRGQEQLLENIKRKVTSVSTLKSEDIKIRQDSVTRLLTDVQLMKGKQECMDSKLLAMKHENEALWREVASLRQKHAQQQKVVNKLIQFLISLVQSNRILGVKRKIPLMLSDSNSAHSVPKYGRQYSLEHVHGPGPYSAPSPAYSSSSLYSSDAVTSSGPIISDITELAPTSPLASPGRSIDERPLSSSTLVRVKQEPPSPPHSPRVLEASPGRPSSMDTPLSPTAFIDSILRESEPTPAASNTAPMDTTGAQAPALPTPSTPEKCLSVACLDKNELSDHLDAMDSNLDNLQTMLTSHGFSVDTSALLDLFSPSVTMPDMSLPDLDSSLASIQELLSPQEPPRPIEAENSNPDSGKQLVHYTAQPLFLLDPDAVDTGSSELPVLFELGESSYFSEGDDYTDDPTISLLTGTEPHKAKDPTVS

[17] = target: T4, Protein RecA (Mycobacterium tuberculosis, UniProt P9WHJ3); experiment: Fluorescence Cell-Free Homogeneous Dose Retest to Identify Inhibitors of RecA-Intein Splicing Activity. [Related pubchem assays (depositor defined):AID2097, AID2223, AID489010, AID492950]; format: functional
T4 sequence (P9WHJ3 whole entry): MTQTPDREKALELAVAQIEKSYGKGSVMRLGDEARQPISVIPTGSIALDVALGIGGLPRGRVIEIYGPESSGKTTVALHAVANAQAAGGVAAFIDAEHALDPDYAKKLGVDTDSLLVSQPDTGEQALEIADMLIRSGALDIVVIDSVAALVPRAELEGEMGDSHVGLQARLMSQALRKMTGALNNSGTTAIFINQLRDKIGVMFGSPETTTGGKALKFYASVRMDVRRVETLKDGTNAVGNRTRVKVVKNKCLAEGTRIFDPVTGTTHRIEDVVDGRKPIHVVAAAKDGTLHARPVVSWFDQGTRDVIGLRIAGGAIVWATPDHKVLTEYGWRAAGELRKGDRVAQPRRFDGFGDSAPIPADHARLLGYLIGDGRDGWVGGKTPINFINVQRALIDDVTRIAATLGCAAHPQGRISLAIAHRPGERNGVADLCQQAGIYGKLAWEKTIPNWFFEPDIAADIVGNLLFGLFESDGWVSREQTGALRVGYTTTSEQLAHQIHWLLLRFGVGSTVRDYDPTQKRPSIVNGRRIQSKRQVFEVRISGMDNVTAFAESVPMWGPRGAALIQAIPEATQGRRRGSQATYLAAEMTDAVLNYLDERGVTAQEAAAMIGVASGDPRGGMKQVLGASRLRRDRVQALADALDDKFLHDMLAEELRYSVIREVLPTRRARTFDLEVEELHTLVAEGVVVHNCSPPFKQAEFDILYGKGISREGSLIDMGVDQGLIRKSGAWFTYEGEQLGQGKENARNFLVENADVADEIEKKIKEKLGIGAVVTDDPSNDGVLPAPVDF

[18] = system: HEK293; experiment: cells; conditions: Homo sapiens
[19] = system: HEK293; experiment: cells; conditions: Homo sapiens; remark: listed apart in the source
[20] = toxicity toward HepG2 liver cells – cell-based, plate reader, cherry-pick, antagonist series, cytotoxicity control, dose response (AID 743416); format: functional
[21] = blockade of melanocortin 4 receptor signaling – cell-based, plate reader, cherry pick, counter-screen for LGR2 antagonist project, dose response (AID 743444); format: functional;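 also: transfected HEK 293 cells stimulated with alpha-MSH peptide; potency of inhibitors of the alpha-MSH evoked signal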
[22] = A549 cell cytotoxicity, dose response, cytotoxicity control, plate reader, cherry-pick, antagonist series (AID 743412); format: functional, cell-based
[23] = viability loss in HEK293 cells – cell-based, plate reader, cherry-picked samples, cytotoxicity control, dose response (AID 743446); format: functional
[24] = target: Beta-2 adrenergic receptor (Homo sapiens, UniProt P07550); experiment: ADRB2 activation measured by internalization – cell-based, FAP fluorogen, flow cytometry, cherry pick 1, dose response (AID 588763); format: functional
[25] = Fluorescence-based cell-based high throughput dose response assay for inhibitors of the interaction of nucleotide-binding oligomerization domain containing 2 (NOD2) and the receptor-interacting serine-threonine kinase 2 (RIPK2).; format: functional; conditions: Homo sapiens
[26] = target: T5, Replicative DNA helicase DnaB (Mycobacterium tuberculosis, UniProt P9WMR3); experiment: DnaB intein splicing inhibitors, dose response, biochemical, cell-free fluorescence (AID 449749); format: functional
T5 sequence (P9WMR3 whole entry): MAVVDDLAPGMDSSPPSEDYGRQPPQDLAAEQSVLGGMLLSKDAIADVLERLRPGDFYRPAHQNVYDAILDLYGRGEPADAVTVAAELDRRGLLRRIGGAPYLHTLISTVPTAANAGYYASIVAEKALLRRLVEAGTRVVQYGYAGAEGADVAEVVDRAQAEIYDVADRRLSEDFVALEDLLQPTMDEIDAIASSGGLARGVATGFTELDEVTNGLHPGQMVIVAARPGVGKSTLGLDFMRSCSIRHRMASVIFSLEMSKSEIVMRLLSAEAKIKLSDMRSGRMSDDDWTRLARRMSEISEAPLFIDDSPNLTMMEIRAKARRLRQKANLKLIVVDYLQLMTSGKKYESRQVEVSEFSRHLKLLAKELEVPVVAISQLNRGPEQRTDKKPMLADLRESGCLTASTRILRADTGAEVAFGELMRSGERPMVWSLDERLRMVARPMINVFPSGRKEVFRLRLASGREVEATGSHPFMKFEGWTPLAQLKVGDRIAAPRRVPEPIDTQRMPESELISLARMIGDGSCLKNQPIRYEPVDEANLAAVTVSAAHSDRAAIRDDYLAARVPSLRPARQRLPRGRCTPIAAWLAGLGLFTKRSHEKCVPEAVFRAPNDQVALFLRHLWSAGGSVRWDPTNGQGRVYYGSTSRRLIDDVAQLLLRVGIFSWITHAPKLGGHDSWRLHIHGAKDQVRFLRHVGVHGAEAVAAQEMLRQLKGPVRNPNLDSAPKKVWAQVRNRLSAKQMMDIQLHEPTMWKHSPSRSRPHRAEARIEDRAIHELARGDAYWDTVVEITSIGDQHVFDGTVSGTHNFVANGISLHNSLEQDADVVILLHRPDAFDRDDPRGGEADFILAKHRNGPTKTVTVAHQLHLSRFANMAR

[27] = target: T6, Mannose-6-phosphate isomerase (Homo sapiens, UniProt P34949); experiment: MPI inhibition at elevated mannose 6-phosphate – biochemical, fluorescence intensity, high mannose 6-phosphate, primary screen (AID 1220)
T6 sequence (P34949 whole entry): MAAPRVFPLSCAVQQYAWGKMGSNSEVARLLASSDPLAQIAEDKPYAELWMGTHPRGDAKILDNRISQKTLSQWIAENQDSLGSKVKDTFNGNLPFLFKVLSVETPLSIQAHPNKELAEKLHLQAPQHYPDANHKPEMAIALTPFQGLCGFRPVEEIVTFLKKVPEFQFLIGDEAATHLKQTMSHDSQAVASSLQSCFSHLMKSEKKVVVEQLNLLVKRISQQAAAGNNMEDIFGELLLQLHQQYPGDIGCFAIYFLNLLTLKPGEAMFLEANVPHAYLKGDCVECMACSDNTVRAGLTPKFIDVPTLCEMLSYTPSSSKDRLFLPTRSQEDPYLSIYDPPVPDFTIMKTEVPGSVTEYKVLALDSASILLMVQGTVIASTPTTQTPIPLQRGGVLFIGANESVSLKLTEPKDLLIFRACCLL

Sequence of Phospholipase A2 (P04054 whole entry): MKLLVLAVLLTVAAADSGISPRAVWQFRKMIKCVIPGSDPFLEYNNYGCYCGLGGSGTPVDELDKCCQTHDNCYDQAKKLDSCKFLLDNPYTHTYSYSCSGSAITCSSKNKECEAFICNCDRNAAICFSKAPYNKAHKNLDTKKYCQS
Sequence of Glucose-6-phosphate 1-dehydrogenase (P11413 whole entry): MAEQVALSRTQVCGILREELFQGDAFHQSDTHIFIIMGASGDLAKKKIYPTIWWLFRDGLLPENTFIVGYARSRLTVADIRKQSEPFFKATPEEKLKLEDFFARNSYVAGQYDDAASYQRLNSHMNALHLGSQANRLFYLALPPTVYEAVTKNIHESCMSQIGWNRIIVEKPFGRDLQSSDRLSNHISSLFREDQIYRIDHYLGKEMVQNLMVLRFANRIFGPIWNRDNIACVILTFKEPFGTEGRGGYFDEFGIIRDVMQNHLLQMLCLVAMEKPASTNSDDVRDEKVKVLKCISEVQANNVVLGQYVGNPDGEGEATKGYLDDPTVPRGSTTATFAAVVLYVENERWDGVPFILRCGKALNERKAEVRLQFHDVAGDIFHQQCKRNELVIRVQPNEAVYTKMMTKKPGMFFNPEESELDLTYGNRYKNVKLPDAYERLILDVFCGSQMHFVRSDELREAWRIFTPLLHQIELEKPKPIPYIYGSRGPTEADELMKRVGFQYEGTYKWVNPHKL
Sequence of DNA (cytosine-5)-methyltransferase 1 (P26358 whole entry): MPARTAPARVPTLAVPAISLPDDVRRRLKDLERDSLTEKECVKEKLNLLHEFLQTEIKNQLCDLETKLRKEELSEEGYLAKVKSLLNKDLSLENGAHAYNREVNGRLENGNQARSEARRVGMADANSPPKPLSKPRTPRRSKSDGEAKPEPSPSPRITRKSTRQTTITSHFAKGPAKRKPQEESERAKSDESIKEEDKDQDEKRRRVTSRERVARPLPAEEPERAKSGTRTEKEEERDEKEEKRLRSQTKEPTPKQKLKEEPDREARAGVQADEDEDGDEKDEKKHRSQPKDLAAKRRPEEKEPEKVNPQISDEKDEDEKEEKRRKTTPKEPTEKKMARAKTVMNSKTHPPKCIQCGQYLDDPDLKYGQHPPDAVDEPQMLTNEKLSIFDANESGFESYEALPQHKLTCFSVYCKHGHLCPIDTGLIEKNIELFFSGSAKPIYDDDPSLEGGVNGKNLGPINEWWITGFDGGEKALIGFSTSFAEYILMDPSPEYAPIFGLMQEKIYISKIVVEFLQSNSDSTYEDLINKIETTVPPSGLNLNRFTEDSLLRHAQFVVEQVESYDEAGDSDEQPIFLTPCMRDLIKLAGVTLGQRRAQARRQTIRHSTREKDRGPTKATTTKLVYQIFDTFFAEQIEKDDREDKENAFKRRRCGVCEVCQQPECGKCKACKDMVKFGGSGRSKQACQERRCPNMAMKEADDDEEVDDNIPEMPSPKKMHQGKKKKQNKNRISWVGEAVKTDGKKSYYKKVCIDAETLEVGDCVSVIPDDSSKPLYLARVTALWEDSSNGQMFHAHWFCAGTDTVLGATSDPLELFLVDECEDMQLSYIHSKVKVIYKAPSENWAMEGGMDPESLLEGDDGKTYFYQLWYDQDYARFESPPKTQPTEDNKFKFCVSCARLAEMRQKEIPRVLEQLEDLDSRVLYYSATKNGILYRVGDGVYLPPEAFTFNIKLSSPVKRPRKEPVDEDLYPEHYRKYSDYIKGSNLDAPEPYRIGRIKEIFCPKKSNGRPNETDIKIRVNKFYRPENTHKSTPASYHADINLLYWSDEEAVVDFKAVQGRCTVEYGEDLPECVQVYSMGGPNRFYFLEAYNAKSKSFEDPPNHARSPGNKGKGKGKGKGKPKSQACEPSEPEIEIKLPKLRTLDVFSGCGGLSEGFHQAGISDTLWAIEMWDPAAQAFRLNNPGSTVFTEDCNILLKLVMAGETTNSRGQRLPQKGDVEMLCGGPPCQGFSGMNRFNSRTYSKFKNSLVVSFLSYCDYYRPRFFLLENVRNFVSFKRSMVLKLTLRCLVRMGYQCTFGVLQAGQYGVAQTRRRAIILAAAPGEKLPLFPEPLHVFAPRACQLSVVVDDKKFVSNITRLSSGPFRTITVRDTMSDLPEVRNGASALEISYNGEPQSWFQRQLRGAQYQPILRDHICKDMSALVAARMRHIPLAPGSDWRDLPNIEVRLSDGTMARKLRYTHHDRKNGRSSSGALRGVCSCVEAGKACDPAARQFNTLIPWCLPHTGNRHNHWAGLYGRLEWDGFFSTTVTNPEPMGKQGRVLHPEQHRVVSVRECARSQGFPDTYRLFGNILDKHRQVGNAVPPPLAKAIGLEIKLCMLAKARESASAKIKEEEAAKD
T1 sequence (P65502 whole entry): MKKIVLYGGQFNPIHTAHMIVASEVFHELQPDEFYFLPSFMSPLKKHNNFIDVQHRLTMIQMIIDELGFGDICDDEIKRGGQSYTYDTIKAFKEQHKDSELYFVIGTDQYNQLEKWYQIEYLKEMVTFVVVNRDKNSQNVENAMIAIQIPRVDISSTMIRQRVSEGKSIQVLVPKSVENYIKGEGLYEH
Sequence of Voltage-gated inwardly rectifying potassium channel KCNH2 (Q12809 whole entry): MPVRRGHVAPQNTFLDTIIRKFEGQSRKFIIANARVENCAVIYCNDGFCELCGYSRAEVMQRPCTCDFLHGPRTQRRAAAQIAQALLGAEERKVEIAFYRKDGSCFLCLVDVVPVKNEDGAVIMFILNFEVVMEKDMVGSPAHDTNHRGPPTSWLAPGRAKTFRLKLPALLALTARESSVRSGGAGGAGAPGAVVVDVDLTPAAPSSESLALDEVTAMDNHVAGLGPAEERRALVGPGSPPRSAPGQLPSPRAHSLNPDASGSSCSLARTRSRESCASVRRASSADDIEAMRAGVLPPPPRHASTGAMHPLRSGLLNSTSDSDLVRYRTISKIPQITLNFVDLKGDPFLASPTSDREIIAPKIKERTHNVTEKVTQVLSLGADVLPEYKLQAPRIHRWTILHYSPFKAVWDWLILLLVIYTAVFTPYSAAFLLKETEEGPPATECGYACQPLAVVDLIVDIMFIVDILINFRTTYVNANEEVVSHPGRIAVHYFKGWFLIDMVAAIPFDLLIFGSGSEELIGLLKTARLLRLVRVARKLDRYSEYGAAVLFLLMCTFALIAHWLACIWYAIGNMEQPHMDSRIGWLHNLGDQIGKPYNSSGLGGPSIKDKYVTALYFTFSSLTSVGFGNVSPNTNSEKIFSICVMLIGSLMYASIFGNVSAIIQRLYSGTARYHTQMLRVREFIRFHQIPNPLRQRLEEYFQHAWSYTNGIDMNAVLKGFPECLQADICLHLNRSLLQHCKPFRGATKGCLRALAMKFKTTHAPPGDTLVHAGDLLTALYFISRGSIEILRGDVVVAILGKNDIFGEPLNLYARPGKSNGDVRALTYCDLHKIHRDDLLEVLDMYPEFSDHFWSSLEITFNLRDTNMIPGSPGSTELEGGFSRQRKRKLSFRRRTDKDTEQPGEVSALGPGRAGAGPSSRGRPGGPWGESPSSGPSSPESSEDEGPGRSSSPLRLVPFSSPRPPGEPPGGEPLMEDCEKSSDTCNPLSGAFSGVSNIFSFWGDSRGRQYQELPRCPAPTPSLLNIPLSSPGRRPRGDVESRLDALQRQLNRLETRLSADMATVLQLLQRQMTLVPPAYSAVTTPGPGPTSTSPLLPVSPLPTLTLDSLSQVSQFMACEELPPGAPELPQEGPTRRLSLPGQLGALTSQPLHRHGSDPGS
Sequence of Cytochrome P450 2D6 (P10635 whole entry): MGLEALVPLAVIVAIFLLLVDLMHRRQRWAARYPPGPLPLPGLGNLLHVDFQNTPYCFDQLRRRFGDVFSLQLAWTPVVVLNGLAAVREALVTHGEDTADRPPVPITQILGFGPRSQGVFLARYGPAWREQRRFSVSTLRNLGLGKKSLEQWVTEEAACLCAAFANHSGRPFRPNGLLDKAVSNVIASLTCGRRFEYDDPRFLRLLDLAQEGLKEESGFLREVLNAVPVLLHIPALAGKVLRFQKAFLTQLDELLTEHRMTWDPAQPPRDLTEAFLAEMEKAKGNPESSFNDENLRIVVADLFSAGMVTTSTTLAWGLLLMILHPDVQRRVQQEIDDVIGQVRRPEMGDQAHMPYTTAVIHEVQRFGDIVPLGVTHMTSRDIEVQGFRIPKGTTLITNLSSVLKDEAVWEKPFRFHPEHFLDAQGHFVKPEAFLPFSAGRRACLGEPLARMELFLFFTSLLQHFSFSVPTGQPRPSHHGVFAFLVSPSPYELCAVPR
Sequence of Cytochrome P450 3A4 (P08684 whole entry): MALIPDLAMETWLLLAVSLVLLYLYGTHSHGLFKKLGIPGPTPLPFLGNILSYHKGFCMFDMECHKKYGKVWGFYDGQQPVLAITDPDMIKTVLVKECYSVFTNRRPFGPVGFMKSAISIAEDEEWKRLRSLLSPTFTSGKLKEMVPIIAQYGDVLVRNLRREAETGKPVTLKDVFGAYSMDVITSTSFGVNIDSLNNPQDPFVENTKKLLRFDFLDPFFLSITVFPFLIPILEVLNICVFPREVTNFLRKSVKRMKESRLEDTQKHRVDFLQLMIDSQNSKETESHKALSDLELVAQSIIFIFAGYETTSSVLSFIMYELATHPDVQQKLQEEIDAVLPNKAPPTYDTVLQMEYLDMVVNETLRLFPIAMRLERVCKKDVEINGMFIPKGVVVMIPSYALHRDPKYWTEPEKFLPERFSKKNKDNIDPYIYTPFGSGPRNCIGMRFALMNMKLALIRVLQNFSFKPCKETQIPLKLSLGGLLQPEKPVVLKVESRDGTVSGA
Sequence of Beta-2 adrenergic receptor (P07550 whole entry, the tested form may be a part): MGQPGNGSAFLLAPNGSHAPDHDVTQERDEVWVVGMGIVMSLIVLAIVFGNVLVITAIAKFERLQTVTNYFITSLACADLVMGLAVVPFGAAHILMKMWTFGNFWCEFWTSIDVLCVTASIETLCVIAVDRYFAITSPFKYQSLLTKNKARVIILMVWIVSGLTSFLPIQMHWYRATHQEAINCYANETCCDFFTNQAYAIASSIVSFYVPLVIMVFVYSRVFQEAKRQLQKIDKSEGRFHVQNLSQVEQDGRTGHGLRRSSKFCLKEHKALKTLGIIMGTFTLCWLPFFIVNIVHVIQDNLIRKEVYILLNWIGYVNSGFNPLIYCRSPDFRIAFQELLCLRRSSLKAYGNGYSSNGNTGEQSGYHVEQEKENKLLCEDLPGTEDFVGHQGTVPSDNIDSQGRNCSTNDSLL

NC(CSC(c1ccccc1)(c1ccccc1)c1ccc(-c2ccccc2)cc1)C(=O)O (stereo not drawn)
IC50 [1]: 11.5 µM (active) | IC50 [2]: 24 µM (active) | IC50 [3]: 9.65 µM (active)

CCCN(CCC)CCc1ccc(O)c(O)c1 [DIPROPYLDOPAMINE HYDROBROMIDE]
AC50 [4]: 15.8 µM (inconclusive)

CCn1cnc2c(Nc3cccc(Cl)c3)nc(C#N)nc21
AC50 [5]: 50 µM (active)

CC(=O)OCC1(C)CN(c2ccccc2)NC1=O (stereo not drawn)
IC50 [6]: 46.7 µM (inactive)

OCC1(CCOc2ccccc2)CCN(Cc2nc3cc(F)ccc3[nH]2)CC1
IC50 [7]: 24.6 µM (active)

COc1ccc(C2c3c(ncn(CCCN4CCOCC4)c3=N)Oc3ccc4ccccc4c32)cc1OC (stereo not drawn)
IC50 [7]: 23.8 µM (active) | CC50 [8]: > 25 µM (active)

O=C(Nc1ccccc1O)c1cc2cc(Br)ccc2oc1=O
AC50 [5]: 221 µM (active)

CCOC(=O)c1sc(-c2ccccc2)cc1NC(=O)Nc1ccccc1
IC50 [9]: 9.28 µM (active) | EC50 [10]: 3.49 µM (active) | IC50 [11]: 21.9 µM (inactive) | EC50 [12]: 16.8 µM (active)

CCCc1cc(=O)[nH]c(SCc2cc(Cl)ccc2OC(F)F)n1
AC50 [13]: 20 µM (inconclusive) | IC50 [9]: 9.01 µM (active) | AC50 [14]: 1.12 µM (inconclusive) | IC50 [11]: 9.02 µM (active)

CS(=O)(=O)c1ccc(C(=O)OCc2nnc(-c3ccccc3)o2)cc1[N+](=O)[O-]
AC50 [15]: 13.4 µM (active) | EC50 [16]: 8.57 µM (inconclusive) | EC50 [10]: 4.95 µM (active) | EC50 [17]: 2.66 µM (active) | EC50 [18]: > 59.6 µM (inactive) | EC50 [19]: > 59.6 µM (inactive) | AC50 [20]: 8.73 µM (active) | AC50 [21]: 20.2 µM (active) | AC50 [22]: 6.14 µM (active) | AC50 [23]: 12.1 µM (active) | EC50 [24]: 19 µM (inactive) | IC50 [25]: 3.01 µM (active) | EC50 [12]: 6.24 µM (active) | AC50 [26]: 7.57 µM (active)

CCS(=O)(=O)Nc1cccc(C(=C2CCCCC2)c2c[nH]cn2)c1
AC50 [4]: 14.1 µM (inconclusive)

CC(=NNc1nc2ccccc2s1)c1ccncn1
IC50 [7]: > 25 µM (active) | CC50 [8]: 5.47 µM (active)

O=C1NC(=O)N(CCc2ccccc2)C(=O)/C1=C(O)/C=C/c1ccccc1
IC50 [7]: > 25 µM (active) | CC50 [8]: 13.3 µM (active)

O=C(O)c1cc2c(cc1NC(=O)c1ccccc1OC(F)F)OCCCO2
IC50 [9]: 6.69 µM (active) | IC50 [11]: 9.56 µM (active)

CC(C)(C)CC(=O)Nc1cccc2c1CCCC2
IC50 [3]: > 99 µM (inactive)

COc1ccc(NS(=O)(=O)c2ccc(N3CCCC3)c(NC(=S)Nc3cccc(C)c3C)c2)cc1
IC50 [27]: > 50 µM (not active) | IC50 [6]: > 80 µM (inactive)

Cc1nc(N2CCN(S(=O)(=O)c3ccccc3)CC2)c2cc(-c3ccccc3)sc2n1
AC50 [5]: > 350 µM (inactive)
